From ChEMBL document CHEMBL3431459, “Roche carnitine palmitoyltransferase modulator screening data (supplementary data associated with the publication CHEMBL2216752)”
Converted amounts (≈) assume the structure as drawn.

Legend:
[1] = SUPPLEMENTARY: Lyophilisation Solubility Assay (LYSA); assay type: physicochemical; settings: read-out: Kinetic_solubility
[2] = SUPPLEMENTARY: Lipophilicity (log D) Determination by high-throughput shake-flask; assay type: physicochemical; settings: octanol/water
[3] = biological target: T1, Carnitine O-palmitoyltransferase 1, muscle isoform (Homo sapiens, UniProt Q92523); assay: SUPPLEMENTARY: Inhibition of Carnitine palmitoyltransferase 1, muscle isoform; design: species or system Muscle tissue
T1 sequence (Q92523 whole entry): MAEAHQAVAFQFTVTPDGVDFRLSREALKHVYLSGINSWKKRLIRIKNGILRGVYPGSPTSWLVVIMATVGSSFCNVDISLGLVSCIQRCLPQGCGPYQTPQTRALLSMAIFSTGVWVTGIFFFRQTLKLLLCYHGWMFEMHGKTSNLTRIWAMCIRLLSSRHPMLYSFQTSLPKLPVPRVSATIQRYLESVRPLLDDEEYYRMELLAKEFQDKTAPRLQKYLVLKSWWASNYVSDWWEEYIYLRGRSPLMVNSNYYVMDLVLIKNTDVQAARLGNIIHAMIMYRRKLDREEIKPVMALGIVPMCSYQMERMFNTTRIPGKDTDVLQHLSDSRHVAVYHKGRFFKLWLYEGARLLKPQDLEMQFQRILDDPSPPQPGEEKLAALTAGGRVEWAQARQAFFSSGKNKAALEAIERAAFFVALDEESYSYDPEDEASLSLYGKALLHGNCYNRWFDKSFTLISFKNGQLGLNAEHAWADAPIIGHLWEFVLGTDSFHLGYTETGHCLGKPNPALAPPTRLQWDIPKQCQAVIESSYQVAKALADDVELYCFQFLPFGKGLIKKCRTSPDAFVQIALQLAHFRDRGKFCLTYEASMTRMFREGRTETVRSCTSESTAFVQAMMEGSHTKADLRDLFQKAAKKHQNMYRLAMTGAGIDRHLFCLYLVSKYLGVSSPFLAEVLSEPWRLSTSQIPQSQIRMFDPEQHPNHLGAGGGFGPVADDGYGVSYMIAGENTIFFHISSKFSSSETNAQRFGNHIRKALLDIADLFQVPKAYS

[4] = SUPPLEMENTARY: PAMPA permeability assay; assay type: physicochemical; settings: read-out: Permeability
[5] = biological target: T2, Carnitine O-palmitoyltransferase 1, liver isoform (Rattus norvegicus, UniProt P32198); assay: (§1) SUPPLEMENTARY: Inhibition of Carnitine palmitoyltransferase 1, liver isoform
T2 sequence (P32198 whole entry): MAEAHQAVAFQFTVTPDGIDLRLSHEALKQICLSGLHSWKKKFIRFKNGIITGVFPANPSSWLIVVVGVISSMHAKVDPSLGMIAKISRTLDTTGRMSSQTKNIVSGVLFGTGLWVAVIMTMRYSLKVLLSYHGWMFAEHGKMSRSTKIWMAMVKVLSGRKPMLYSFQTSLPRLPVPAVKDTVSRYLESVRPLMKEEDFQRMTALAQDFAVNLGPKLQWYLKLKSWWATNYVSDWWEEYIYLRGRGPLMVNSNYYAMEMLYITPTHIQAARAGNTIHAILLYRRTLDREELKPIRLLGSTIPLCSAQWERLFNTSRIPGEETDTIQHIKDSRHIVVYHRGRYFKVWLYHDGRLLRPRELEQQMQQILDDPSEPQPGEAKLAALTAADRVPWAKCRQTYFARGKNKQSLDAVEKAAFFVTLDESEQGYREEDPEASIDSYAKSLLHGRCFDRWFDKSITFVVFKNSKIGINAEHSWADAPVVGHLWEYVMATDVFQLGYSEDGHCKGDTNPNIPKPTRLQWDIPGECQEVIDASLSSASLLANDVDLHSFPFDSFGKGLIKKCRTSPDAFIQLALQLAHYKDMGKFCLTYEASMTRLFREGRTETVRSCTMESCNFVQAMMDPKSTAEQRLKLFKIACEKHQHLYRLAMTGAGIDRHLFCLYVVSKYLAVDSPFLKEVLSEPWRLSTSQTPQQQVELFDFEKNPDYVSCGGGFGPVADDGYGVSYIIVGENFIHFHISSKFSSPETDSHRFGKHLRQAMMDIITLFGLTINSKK

[6] = biological target: T3, Carnitine O-palmitoyltransferase 1, liver isoform (Homo sapiens, UniProt P50416); assay: as §1
T3 sequence (P50416 whole entry): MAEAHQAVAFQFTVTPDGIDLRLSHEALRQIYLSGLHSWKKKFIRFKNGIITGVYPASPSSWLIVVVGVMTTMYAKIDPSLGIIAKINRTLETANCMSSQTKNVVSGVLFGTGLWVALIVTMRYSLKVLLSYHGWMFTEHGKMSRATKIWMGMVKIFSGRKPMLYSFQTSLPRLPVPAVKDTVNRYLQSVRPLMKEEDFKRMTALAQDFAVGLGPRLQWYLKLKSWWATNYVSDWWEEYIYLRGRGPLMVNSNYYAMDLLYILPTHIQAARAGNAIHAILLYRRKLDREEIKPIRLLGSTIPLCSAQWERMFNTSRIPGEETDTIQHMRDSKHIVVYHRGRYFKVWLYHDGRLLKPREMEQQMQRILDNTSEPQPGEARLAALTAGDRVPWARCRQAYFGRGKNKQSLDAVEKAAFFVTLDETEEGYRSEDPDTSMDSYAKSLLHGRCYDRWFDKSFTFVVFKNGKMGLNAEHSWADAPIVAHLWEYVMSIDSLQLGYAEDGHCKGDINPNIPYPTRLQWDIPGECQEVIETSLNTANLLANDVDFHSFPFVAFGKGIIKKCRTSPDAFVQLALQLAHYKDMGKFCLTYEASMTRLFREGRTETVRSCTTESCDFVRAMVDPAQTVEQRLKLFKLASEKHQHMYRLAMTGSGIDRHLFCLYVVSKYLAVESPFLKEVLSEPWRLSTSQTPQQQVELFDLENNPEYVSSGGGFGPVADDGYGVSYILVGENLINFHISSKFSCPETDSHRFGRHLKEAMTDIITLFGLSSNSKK

[7] = biological target: T4, Carnitine O-palmitoyltransferase 2, mitochondrial (Homo sapiens, UniProt P23786); assay: (§2) SUPPLEMENTARY: Inhibition of Carnitine palmitoyltransferase 2
T4 sequence (P23786 whole entry): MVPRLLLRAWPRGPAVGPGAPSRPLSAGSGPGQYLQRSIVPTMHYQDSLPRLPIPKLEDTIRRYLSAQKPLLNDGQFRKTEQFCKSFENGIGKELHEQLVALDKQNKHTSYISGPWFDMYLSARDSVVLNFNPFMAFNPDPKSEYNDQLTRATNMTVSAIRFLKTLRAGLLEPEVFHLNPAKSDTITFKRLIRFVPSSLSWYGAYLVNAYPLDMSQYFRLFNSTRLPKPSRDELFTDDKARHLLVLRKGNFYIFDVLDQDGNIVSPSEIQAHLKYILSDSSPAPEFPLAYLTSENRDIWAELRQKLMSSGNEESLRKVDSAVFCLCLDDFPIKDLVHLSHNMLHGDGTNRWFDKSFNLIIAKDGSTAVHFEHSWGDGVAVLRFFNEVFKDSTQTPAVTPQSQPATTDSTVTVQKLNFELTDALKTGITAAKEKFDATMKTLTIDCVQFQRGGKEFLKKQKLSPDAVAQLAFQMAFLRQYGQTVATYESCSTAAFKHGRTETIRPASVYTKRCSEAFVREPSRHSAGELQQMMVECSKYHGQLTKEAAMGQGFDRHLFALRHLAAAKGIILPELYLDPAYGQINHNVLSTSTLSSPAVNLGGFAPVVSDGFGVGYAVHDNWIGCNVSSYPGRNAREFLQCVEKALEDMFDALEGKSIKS

[8] = biological target: T5, Carnitine O-palmitoyltransferase 2, mitochondrial (Rattus norvegicus, UniProt P18886); assay: as §2
T5 sequence (P18886 whole entry): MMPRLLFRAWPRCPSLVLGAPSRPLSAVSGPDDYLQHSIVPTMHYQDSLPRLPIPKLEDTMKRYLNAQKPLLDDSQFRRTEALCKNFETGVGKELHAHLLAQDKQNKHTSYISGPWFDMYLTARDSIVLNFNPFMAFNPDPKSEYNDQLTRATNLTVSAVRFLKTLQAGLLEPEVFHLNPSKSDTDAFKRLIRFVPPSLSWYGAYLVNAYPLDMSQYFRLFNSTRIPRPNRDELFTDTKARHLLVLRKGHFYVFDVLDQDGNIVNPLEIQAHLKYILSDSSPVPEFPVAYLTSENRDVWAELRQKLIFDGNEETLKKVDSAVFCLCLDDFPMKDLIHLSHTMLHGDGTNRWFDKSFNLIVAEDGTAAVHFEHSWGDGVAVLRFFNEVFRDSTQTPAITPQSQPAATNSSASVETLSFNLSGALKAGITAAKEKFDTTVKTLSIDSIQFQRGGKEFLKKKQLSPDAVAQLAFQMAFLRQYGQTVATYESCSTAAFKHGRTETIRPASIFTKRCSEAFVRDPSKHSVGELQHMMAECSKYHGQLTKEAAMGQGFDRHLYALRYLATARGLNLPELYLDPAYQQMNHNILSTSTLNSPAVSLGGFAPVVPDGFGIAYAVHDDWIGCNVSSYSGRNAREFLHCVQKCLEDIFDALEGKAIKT

Compound | solubility kinetic [1] [µg/mL] | logD [2] | IC50 [3] [µM] | Papp [4] [×10⁻⁶ cm/s] | IC50 [5] [µM] | IC50 [6] [µM] | IC50 [7] [µM] | IC50 [8] [µM]
COc1ccc(Cl)cc1CN1C(=O)CS(=O)(=O)c2ccc(C(=O)Nc3nc(CC(=O)O)cs3)cc21 | 417 (≈ 778 µM) | -0.29 | 9.62 | 0.85 | 0.0898 | 0.219 | > 100 | > 100
COc1ccc(Cl)cc1S(=O)(=O)N[C@@H]1CCCN(C(=O)COc2ccccc2)C1 | 64 (≈ 146 µM) | 2.59 | 51.8 | 1.36 | 0.0954 | 0.134 | 21 | > 100
Cc1cc(C)cc(S(=O)(=O)N2CCS(=O)(=O)c3ccc(C(=O)Nc4ccc(C(=O)O)cc4)cc32)c1 | 481 (≈ 935 µM) | 0.55 | 5.3 | 1.95 | 0.0181 | 0.031 | 2.8 | 10.5
COc1ccc(Cl)cc1S(=O)(=O)N1CCOc2ccc(C(=O)Nc3ccccc3)cc21 | < 1 | > 3 | > 100 | 1.26 | 0.0845 | 0.0408 | > 100 | > 100
N#Cc1ccc(-c2nc([C@H]3CCCCN3C(=O)COc3ccccc3)no2)cc1 | 6 (≈ 15.4 µM) | 3.16 | > 100 | 5.52 | 0.143 | 0.0807 | 22 | > 100
COc1ccc(C)cc1S(=O)(=O)N1CCCc2ccc(C(=O)Nc3ccc(C(=O)O)c(F)c3)cc21 | 60 (≈ 120 µM) | 0.88 | 5.18 | 1.62 | 0.0909 | 0.152 | 4.43 | 8.13
O=C(COc1ccccc1)N1CCCC[C@@H]1c1noc(-c2cccc(-n3cc[nH]c3=O)c2)n1 | 70 (≈ 157 µM) | 2.66 | 83.3 | 7.36 | 0.458 | 0.0599 | 29.7 | 69.7
O=C(NCCO)c1cccc(-c2n[nH]c([C@H]3CCCCN3C(=O)COc3ccccc3)n2)c1 | 138 (≈ 307 µM) | 1.98 | > 100 | 0.51 | 0.713 | 0.242 | 30.3 | 70
COC[C@@H]1CCN(NC(=O)c2cccc(-c3n[nH]c([C@H]4CCCCN4C(=O)COc4ccccc4)n3)c2)C1 | 229 (≈ 442 µM) | 2.45 | > 100 | 3.31 | 1.3 | 0.159 | 74.3 | 73.6
COc1ccc(Cl)cc1Cn1cc(C(=O)O)c2ccc(C(=O)Nc3ccccc3)cc21 | < 1 | 3.13 | > 100 | 0.53 | 0.104 | 0.0996 | > 100 | > 100
CCOC(=O)C1CN(S(=O)(=O)c2cc(Cl)ccc2OC)c2cc(C(=O)Nc3cccc(F)c3)ccc2O1 (configuration not stated) | < 1 | 3.58 | > 100 | 1.31 | 0.339 | 0.221 | > 100 | > 100
Cc1cc(C)cc(S(=O)(=O)N2CCc3ccc(C(=O)Nc4nc(CC(=O)O)cs4)cc32)c1 | 5 (≈ 10.6 µM) | 2.37 | 0.531 | 2.22 | 0.032 | 0.0167 | > 100 | > 100
NC(=O)c1ccc(-c2noc([C@H]3CCCCN3C(=O)COc3ccccc3)n2)cc1 | 52 (≈ 128 µM) | 2.66 | > 100 | 5.08 | 0.255 | 0.0342 | 39.7 | 37.7
O=C(COc1ccccc1)N1CCCC[C@@H]1c1nc(-c2ccc([N+](=O)[O-])o2)no1 | 6 (≈ 15.1 µM) | 2.53 | > 100 | 5.09 | 0.297 | 0.0682 | 9.99 | 35.7
